This note sets out measurements from PMC6044830 (ACS Omega, 2017).

The assay addresses PDE4D2 (Homo sapiens, UniProt Q08499). The assay can be described thus: PDE4D2 assay. In kind it is biochemical. As to conditions: read-out: PDE4D2 (IC50); human recombinant PDE4D2, catalytic domain.

Chain of PDE4D2 (Q08499 381-740): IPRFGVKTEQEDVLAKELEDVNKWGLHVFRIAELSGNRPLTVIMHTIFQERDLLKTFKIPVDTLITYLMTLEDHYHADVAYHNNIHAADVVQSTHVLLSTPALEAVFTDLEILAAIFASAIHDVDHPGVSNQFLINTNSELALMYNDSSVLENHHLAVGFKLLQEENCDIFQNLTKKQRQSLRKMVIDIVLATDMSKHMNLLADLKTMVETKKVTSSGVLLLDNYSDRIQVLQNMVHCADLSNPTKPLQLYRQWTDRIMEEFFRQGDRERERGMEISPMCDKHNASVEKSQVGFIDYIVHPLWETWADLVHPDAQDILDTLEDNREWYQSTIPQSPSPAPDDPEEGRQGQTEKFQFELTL

Consider `Cc1ccc(-c2ccc(O)cc2)c(C(=C2C=CC(=O)C=C2)c2ccc(O)cc2)c1C#Cc1ccc(O)cc1` [Compound 8, selaginellin B], for which the half-maximal inhibitory concentration (IC50) (usually the point on the concentration scale where inhibition reaches its midpoint) is 0.14 ± 0.016 µM.

`OCc1ccc2c(c1C#Cc1ccc(O)cc1)C(c1ccc(O)cc1)(c1ccc(O)cc1)c1cc(O)ccc1-2` [Compound 3, selaginpulvilin A]: the IC50 turned out to be 0.24 ± 0.04 µM.
